Reference: patent publication US8916702B2 (priority 2012, dated 2014)

tested on: HCV pseudoparticles (genotype 1a HCV E1 and E2 envelope, H77C isolate); experiment: microbe, parasite or virus in culture; assay type: cell-based; settings: Hepatitis C virus, Huh-7, 48 h, HCV pseudoparticles, Huh7 cells, luciferase 2 days after infection; average of duplicates

| Structure (SMILES) | EC50 [nM] |
| --- | --- |
| CC(C)c1cccc(NC(=O)C(=O)NC[C@H](NC(=O)c2ccc(Nc3nc(NC4(c5ccc(Cl)cc5)CC4)nc(OCC(F)(F)F)n3)cc2)C(=O)O)c1 [Compound 3758] | 0.54 |
| O=C(NC[C@H](NC(=O)c1ccc(Nc2nc(NC3(c4ccc(Cl)cc4)CC3)nc(OCC(F)(F)F)n2)cc1)C(=O)O)C(=O)Nc1cccc(-c2ncc[nH]2)c1 [Compound 3765] | 0.68 |
| O=C(NC[C@H](NC(=O)c1ccc(Nc2nc(NC3(c4ccc(Cl)cc4)CC3)nc(OCC(F)(F)F)n2)cc1)C(=O)O)C(=O)Nc1cccc(S(=O)(=O)N2CCCCC2)c1 [Compound 3772] | 7.42 |
| Cn1nnnc1-c1cccc(NC(=O)C(=O)NC[C@H](NC(=O)c2ccc(Nc3nc(NC4(c5ccc(Cl)cc5)CC4)nc(OCC(F)(F)F)n3)cc2)C(=O)Cl)c1 [Compound 3786] | 0.55 |
| CC(C)(CNC(=O)C(=O)Nc1cc[nH]n1)CNC(=O)c1ccc(Nc2nc(NC3(c4ccc(Cl)cc4)CC3)nc(OCC(F)(F)F)n2)cc1 [Compound 3794] | 0.061 |
| CC(C)(CNC(=O)C(=O)Nc1nc2ccc(Cl)cc2s1)CNC(=O)c1ccc(Nc2nc(NC3(c4ccc(Cl)cc4)CC3)nc(OCC(F)(F)F)n2)cc1 [Compound 3807] | 0.28 |

same assay, conditions: Hepatitis C virus, Huh-7, 48 h, read-out: Activity (EC50 class), HCV pseudoparticles, Huh7 cells, luciferase 2 days after infection; average of duplicates

| Structure (SMILES) | EC50 [nM] |
| --- | --- |
| Cc1nccc(-c2cccc(NC(=O)C(=O)NC[C@H](NC(=O)c3ccc(Nc4nc(NC5(c6ccc(Cl)cc6)CC5)nc(OCC(F)(F)F)n4)cc3)C(=O)O)c2)n1 [Compound 3756] | 0.01 to 10 |
| O=C(NC[C@H](NC(=O)c1ccc(Nc2nc(NC3(c4ccc(Cl)cc4)CC3)nc(OCC(F)(F)F)n2)cc1)C(=O)O)C(=O)Nc1cccc(S(=O)(=O)c2ccccc2)c1 [Compound 3757] | 0.01 to 10 |
| CC(C)c1cccc(NC(=O)C(=O)NC[C@H](NC(=O)c2ccc(Nc3nc(NC4(c5ccc(Cl)cc5)CC4)nc(OCC(F)(F)F)n3)cc2)C(=O)O)c1 [Compound 3758] | 0.01 to 10 |
| O=C(NC[C@H](NC(=O)c1ccc(Nc2nc(NC3(c4ccc(Cl)cc4)CC3)nc(OCC(F)(F)F)n2)cc1)C(=O)O)C(=O)Nc1ccc(N2CCOCC2)nc1 [Compound 3759] | 0.01 to 10 |
| CC(C)(C)c1cccc(NC(=O)C(=O)NC[C@H](NC(=O)c2ccc(Nc3nc(NC4(c5ccc(Cl)cc5)CC4)nc(OCC(F)(F)F)n3)cc2)C(=O)O)c1 [Compound 3760] | 0.01 to 10 |
| Nc1ccc(NC(=O)C(=O)NC[C@H](NC(=O)c2ccc(Nc3nc(NC4(c5ccc(Cl)cc5)CC4)nc(OCC(F)(F)F)n3)cc2)C(=O)O)nc1 [Compound 3761] | 0.01 to 10 |
| CC(=O)Nc1ccc(NC(=O)C(=O)NC[C@H](NC(=O)c2ccc(Nc3nc(NC4(c5ccc(Cl)cc5)CC4)nc(OCC(F)(F)F)n3)cc2)C(=O)O)cn1 [Compound 3762] | 0.01 to 10 |
| CS(=O)(=O)c1cccc(NC(=O)C(=O)NC[C@H](NC(=O)c2ccc(Nc3nc(NC4(c5ccc(Cl)cc5)CC4)nc(OCC(F)(F)F)n3)cc2)C(=O)O)c1 [Compound 3763] | 0.01 to 10 |
| O=C(NC[C@H](NC(=O)c1ccc(Nc2nc(NC3(c4ccc(Cl)cc4)CC3)nc(OCC(F)(F)F)n2)cc1)C(=O)O)C(=O)Nc1cccc(OC(F)F)c1 [Compound 3764] | 0.01 to 10 |
| O=C(NC[C@H](NC(=O)c1ccc(Nc2nc(NC3(c4ccc(Cl)cc4)CC3)nc(OCC(F)(F)F)n2)cc1)C(=O)O)C(=O)Nc1cccc(-c2ncc[nH]2)c1 [Compound 3765] | 0.01 to 10 |
| O=C(NC[C@H](NC(=O)c1ccc(Nc2nc(NC3(c4ccc(Cl)cc4)CC3)nc(OCC(F)(F)F)n2)cc1)C(=O)O)C(=O)Nc1cccc(S(=O)(=O)C(F)(F)F)c1 [Compound 3766] | 0.01 to 10 |
| O=C(NC[C@H](NC(=O)c1ccc(Nc2nc(NC3(c4ccc(Cl)cc4)CC3)nc(OCC(F)(F)F)n2)cc1)C(=O)O)C(=O)Nc1cccc(-c2ccncc2)c1 [Compound 3768] | 0.01 to 10 |
| O=C(NC[C@H](NC(=O)c1ccc(Nc2nc(NC3(c4ccc(Cl)cc4)CC3)nc(OCC(F)(F)F)n2)cc1)C(=O)O)C(=O)Nc1cccc(CCc2ccccn2)c1 [Compound 3769] | 0.01 to 10 |
| O=C(NC[C@H](NC(=O)c1ccc(Nc2nc(NC3(c4ccc(Cl)cc4)CC3)nc(OCC(F)(F)F)n2)cc1)C(=O)O)C(=O)Nc1cccc(Cc2ccccc2)c1 [Compound 3770] | 0.01 to 10 |
| O=C(NC[C@H](NC(=O)c1ccc(Nc2nc(NC3(c4ccc(Cl)cc4)CC3)nc(OCC(F)(F)F)n2)cc1)C(=O)O)C(=O)Nc1ccc(Oc2ccccc2)nc1 [Compound 3771] | 0.01 to 10 |
| O=C(NC[C@H](NC(=O)c1ccc(Nc2nc(NC3(c4ccc(Cl)cc4)CC3)nc(OCC(F)(F)F)n2)cc1)C(=O)O)C(=O)Nc1cccc(S(=O)(=O)N2CCCCC2)c1 [Compound 3772] | 0.01 to 10 |
| Cc1nc(-c2cccc(NC(=O)C(=O)NC[C@H](NC(=O)c3ccc(Nc4nc(NC5(c6ccc(Cl)cc6)CC5)nc(OCC(F)(F)F)n4)cc3)C(=O)O)c2)cs1 [Compound 3773] | 0.01 to 10 |
| Cn1cnnc1-c1cccc(NC(=O)C(=O)NC[C@H](NC(=O)c2ccc(Nc3nc(NC4(c5ccc(Cl)cc5)CC4)nc(OCC(F)(F)F)n3)cc2)C(=O)O)c1 [Compound 3774] | 0.01 to 10 |
| O=C(NC[C@H](NC(=O)c1ccc(Nc2nc(NC3(c4ccc(Cl)cc4)CC3)nc(OCC(F)(F)F)n2)cc1)C(=O)O)C(=O)Nc1cccc(-c2ccc(Cl)cc2)c1 [Compound 3775] | 0.01 to 10 |
| O=C(NC[C@H](NC(=O)c1ccc(Nc2nc(NC3(c4ccc(Cl)cc4)CC3)nc(OCC(F)(F)F)n2)cc1)C(=O)O)C(=O)Nc1ccc(N2CCCC2)nc1 [Compound 3776] | 0.01 to 10 |
| O=C(NC[C@H](NC(=O)c1ccc(Nc2nc(NC3(c4ccc(Cl)cc4)CC3)nc(OCC(F)(F)F)n2)cc1)C(=O)O)C(=O)Nc1ccc(O)nc1 [Compound 3777] | 0.01 to 10 |
| O=C(NC[C@H](NC(=O)c1ccc(Nc2nc(NC3(c4ccc(Cl)cc4)CC3)nc(OCC(F)(F)F)n2)cc1)C(=O)O)C(=O)Nc1cccc(CN2CCCC2)c1 [Compound 3778] | 0.01 to 10 |
| Cc1csc(-c2cccc(NC(=O)C(=O)NC[C@H](NC(=O)c3ccc(Nc4nc(NC5(c6ccc(Cl)cc6)CC5)nc(OCC(F)(F)F)n4)cc3)C(=O)Cl)c2)n1 [Compound 3780] | 0.01 to 10 |
| O=C(NC[C@H](NC(=O)c1ccc(Nc2nc(NC3(c4ccc(Cl)cc4)CC3)nc(OCC(F)(F)F)n2)cc1)C(=O)Cl)C(=O)Nc1cccc(Oc2ccccn2)c1 [Compound 3781] | 0.01 to 10 |
| CNS(=O)(=O)c1cccc(NC(=O)C(=O)NC[C@H](NC(=O)c2ccc(Nc3nc(NC4(c5ccc(Cl)cc5)CC4)nc(OCC(F)(F)F)n3)cc2)C(=O)Cl)c1 [Compound 3782] | 0.01 to 10 |

| Structure (SMILES) | EC50 [nM] |
| --- | --- |
| O=C(NC[C@H](NC(=O)c1ccc(Nc2nc(NC3(c4ccc(Cl)cc4)CC3)nc(OCC(F)(F)F)n2)cc1)C(=O)Cl)C(=O)Nc1cccc(-c2cccnc2)c1 [Compound 3783] | 0.01 to 10 |
| O=C(NC[C@H](NC(=O)c1ccc(Nc2nc(NC3(c4ccc(Cl)cc4)CC3)nc(OCC(F)(F)F)n2)cc1)C(=O)Cl)C(=O)Nc1cccc(-n2cnnc2)c1 [Compound 3784] | 0.01 to 10 |
| Cc1nc(-c2cccc(NC(=O)C(=O)NC[C@H](NC(=O)c3ccc(Nc4nc(NC5(c6ccc(Cl)cc6)CC5)nc(OCC(F)(F)F)n4)cc3)C(=O)Cl)c2)no1 [Compound 3785] | 0.01 to 10 |
| Cn1nnnc1-c1cccc(NC(=O)C(=O)NC[C@H](NC(=O)c2ccc(Nc3nc(NC4(c5ccc(Cl)cc5)CC4)nc(OCC(F)(F)F)n3)cc2)C(=O)Cl)c1 [Compound 3786] | 0.01 to 10 |
| O=C(NC[C@H](NC(=O)c1ccc(Nc2nc(NC3(c4ccc(Cl)cc4)CC3)nc(OCC(F)(F)F)n2)cc1)C(=O)Cl)C(=O)Nc1cccc(-c2c[nH]cn2)c1 [Compound 3787] | 0.01 to 10 |
| CCN(CC)CCOc1cccc(NC(=O)C(=O)NC[C@H](NC(=O)c2ccc(Nc3nc(NC4(c5ccc(Cl)cc5)CC4)nc(OCC(F)(F)F)n3)cc2)C(=O)Cl)c1 [Compound 3788] | 0.01 to 10 |
| O=C(NC[C@H](NC(=O)c1ccc(Nc2nc(NC3(c4ccc(Cl)cc4)CC3)nc(OCC(F)(F)F)n2)cc1)C(=O)Cl)C(=O)Nc1cccc(-n2ccnc2)c1 [Compound 3789] | 0.01 to 10 |
| CN(C)CCOc1ccc(NC(=O)C(=O)NC[C@H](NC(=O)c2ccc(Nc3nc(NC4(c5ccc(Cl)cc5)CC4)nc(OCC(F)(F)F)n3)cc2)C(=O)Cl)cn1 [Compound 3790] | 0.01 to 10 |
| O=C(NC[C@H](NC(=O)c1ccc(Nc2nc(NC3(c4ccc(Cl)cc4)CC3)nc(OCC(F)(F)F)n2)cc1)C(=O)Cl)C(=O)Nc1ccc(OCCN2CCCCC2)nc1 [Compound 3791] | 0.01 to 10 |
| O=C(NC[C@H](NC(=O)c1ccc(Nc2nc(NC3(c4ccc(Cl)cc4)CC3)nc(OCC(F)(F)F)n2)cc1)C(=O)Cl)C(=O)Nc1cccc(Oc2cccnc2)c1 [Compound 3792] | 0.01 to 10 |
| CC(C)(CNC(=O)C(=O)Nc1ccc(Cl)c(Cl)c1)CNC(=O)c1ccc(Nc2nc(NC3(c4ccc(Cl)cc4)CC3)nc(OCC(F)(F)F)n2)cc1 [Compound 3793] | 0.01 to 10 |
| CC(C)(CNC(=O)C(=O)Nc1cc[nH]n1)CNC(=O)c1ccc(Nc2nc(NC3(c4ccc(Cl)cc4)CC3)nc(OCC(F)(F)F)n2)cc1 [Compound 3794] | 0.01 to 10 |
| CC(C)(CNC(=O)C(=O)Nc1ccc(-n2cccn2)cc1)CNC(=O)c1ccc(Nc2nc(NC3(c4ccc(Cl)cc4)CC3)nc(OCC(F)(F)F)n2)cc1 [Compound 3795] | 0.01 to 10 |
| CC(C)(CNC(=O)C(=O)Nc1ccc(-c2ccncc2)cc1)CNC(=O)c1ccc(Nc2nc(NC3(c4ccc(Cl)cc4)CC3)nc(OCC(F)(F)F)n2)cc1 [Compound 3796] | 0.01 to 10 |
| CC(C)(CNC(=O)C(=O)Nc1ccc(-c2cccc(F)c2)cc1)CNC(=O)c1ccc(Nc2nc(NC3(c4ccc(Cl)cc4)CC3)nc(OCC(F)(F)F)n2)cc1 [Compound 3797] | 0.01 to 10 |
| Cc1cc(NC(=O)C(=O)NCC(C)(C)CNC(=O)c2ccc(Nc3nc(NC4(c5ccc(Cl)cc5)CC4)nc(OCC(F)(F)F)n3)cc2)ccc1Cl [Compound 3798] | 0.01 to 10 |
| Cc1ccc(NC(=O)C(=O)NCC(C)(C)CNC(=O)c2ccc(Nc3nc(NC4(c5ccc(Cl)cc5)CC4)nc(OCC(F)(F)F)n3)cc2)cc1C [Compound 3799] | 0.01 to 10 |
| CC(C)(CNC(=O)C(=O)Nc1nc2cc(O)ccc2s1)CNC(=O)c1ccc(Nc2nc(NC3(c4ccc(Cl)cc4)CC3)nc(OCC(F)(F)F)n2)cc1 [Compound 3801] | 0.01 to 10 |
| COc1cc2sc(NC(=O)C(=O)NCC(C)(C)CNC(=O)c3ccc(Nc4nc(NC5(c6ccc(Cl)cc6)CC5)nc(OCC(F)(F)F)n4)cc3)nc2cc1Cl [Compound 3802] | 0.01 to 10 |
| COc1ccc2nc(NC(=O)C(=O)NCC(C)(C)CNC(=O)c3ccc(Nc4nc(NC5(c6ccc(Cl)cc6)CC5)nc(OCC(F)(F)F)n4)cc3)sc2n1 [Compound 3803] | 0.01 to 10 |
| CC(C)(CNC(=O)C(=O)Nc1nc2ccc(F)cc2s1)CNC(=O)c1ccc(Nc2nc(NC3(c4ccc(Cl)cc4)CC3)nc(OCC(F)(F)F)n2)cc1 [Compound 3804] | 0.01 to 10 |
| Cc1cccc2sc(NC(=O)C(=O)NCC(C)(C)CNC(=O)c3ccc(Nc4nc(NC5(c6ccc(Cl)cc6)CC5)nc(OCC(F)(F)F)n4)cc3)nc12 [Compound 3805] | 0.01 to 10 |
| COc1ccc2sc(NC(=O)C(=O)NCC(C)(C)CNC(=O)c3ccc(Nc4nc(NC5(c6ccc(Cl)cc6)CC5)nc(OCC(F)(F)F)n4)cc3)nc2c1 [Compound 3806] | 0.01 to 10 |
| CC(C)(CNC(=O)C(=O)Nc1nc2ccc(Cl)cc2s1)CNC(=O)c1ccc(Nc2nc(NC3(c4ccc(Cl)cc4)CC3)nc(OCC(F)(F)F)n2)cc1 [Compound 3807] | 0.01 to 10 |
